We go through eight compounds from PMC6544337, “Development of chimeric and bifunctional antagonists for CLR/RAMP receptors” (PLoS ONE, 2019).

Common to all, as to type: cell-based
In assay [1] the target is T1, CLR/RAMP1 (Homo sapiens, UniProt O60894+Q16602). Put plainly: CLR/RAMP1 cAMP assay, antagonist mode (CGRP challenge at EC80). The following applies: for Emax: maximum inhibition of CGRP-mediated signaling, in % of a positive control, read-out: CLR/RAMP1 Max Activity % of control (antagonistic). (Cyclic AMP is a second messenger, typically raised through Gs and lowered through Gi signalling.)
T1 sequence (Q16602 23-461): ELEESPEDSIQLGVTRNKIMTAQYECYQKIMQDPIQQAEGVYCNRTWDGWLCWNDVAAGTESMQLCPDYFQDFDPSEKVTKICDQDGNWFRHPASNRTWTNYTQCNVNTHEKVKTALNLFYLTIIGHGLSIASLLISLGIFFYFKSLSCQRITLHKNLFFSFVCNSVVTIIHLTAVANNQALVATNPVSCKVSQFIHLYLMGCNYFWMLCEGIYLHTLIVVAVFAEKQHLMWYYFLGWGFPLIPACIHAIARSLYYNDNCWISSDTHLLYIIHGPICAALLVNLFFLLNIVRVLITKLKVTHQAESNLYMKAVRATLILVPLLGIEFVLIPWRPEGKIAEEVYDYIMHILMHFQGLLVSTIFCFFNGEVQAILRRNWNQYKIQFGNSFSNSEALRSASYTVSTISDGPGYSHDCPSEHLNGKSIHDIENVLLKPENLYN
T1 sequence (O60894 27-148): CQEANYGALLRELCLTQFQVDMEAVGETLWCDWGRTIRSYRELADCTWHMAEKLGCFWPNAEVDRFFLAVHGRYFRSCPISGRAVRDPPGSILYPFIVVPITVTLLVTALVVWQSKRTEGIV

Assay [2] has as its target T2, CLR/RAMP2 (Homo sapiens, UniProt O60895+Q16602). Put plainly: CLR/RAMP2 PathHunter β-arrestin assay, antagonist mode (ADM challenge at EC80). Conditions: for IC50: inhibition of ADM-mediated signaling, CHO-K1 cells, pre-incubation with antagonist, then agonist at EC80, β-arrestin read-out; for Emax: maximum inhibition of ADM-mediated signaling, in % of a positive control, read-out: CLR/RAMP2 Max Activity % of control (antagonistic). As for the experimental part:
(§1) The bioactivity of synthetic analogs was studied using cells that stably express CLR/RAMP1 (1321N1 cells) or CLR/RAMP2 (CHO-K1 cells) receptors using CLR/RAMP1 cAMP and CLR/RAMP2 arrestin assays from DiscoveRx (Fremont, Ca). In receptor-activation assays, the dose-dependent stimulatory response was studied in duplicate, at 10 different concentrations.
(§2) The CLR/RAMP2 signaling was assayed using the CLR/RAMP2 PathHunter β-Arrestin assay. In this assay, the GPCR was fused in frame with a small enzyme donor fragment ProLink (PK) and co-expressed in cells stably expressing a fusion protein of β-arrestin and an N-terminal deletion mutant of β-galactosidase (i.e., enzyme acceptor or EA). Activation of the CLR/RAMP2 stimulates binding of β-arrestin to the PK-tagged receptor and leads to an increase in enzyme activity that can be measured using chemiluminescent PathHunter Detection Reagents. PathHunter cell lines were seeded in white walled, 384-well microplates and incubated at 37C prior to testing. For agonist determination, intermediate dilution of sample stocks was performed to generate 5X sample in assay buffer, and 5 μl of 5X sample was added to cells and incubated at 37C for 90 minutes. Vehicle concentration was 1%. For antagonistic activity determination, cells were pre-incubated with antagonist followed by agonist challenge at the EC80 concentration.

In assay [3] the target is T2, CLR/RAMP2. The assay is described as follows: CLR/RAMP2 PathHunter β-arrestin assay, agonist mode. The following applies: agonist mode; positive control ADM; CHO-K1 cells. How it is done: as §1, §2
Assay [4] deals with T1, CLR/RAMP1. Put plainly: CLR/RAMP1 cAMP assay, agonist mode (DiscoveRx HitHunter cAMP XS+). Conditions: agonist mode; positive control CGRP; 1321N1 cells. As for the experimental part:
as §1
For the analysis of signaling in CLR/RAMP1-expressing cells, cAMP Hunter cell lines were expanded from freezer stocks, and cells were seeded in white walled, 384-well microplates and incubated at 37C for the appropriate time. The activity was determined using the DiscoveRx HitHunter cAMP XS+ assay. Media was aspirated from cells and replaced with 15 μl 2:1 HBSS/10mM Hepes:cAMP XS+ Ab reagent. Intermediate dilution of sample stocks was performed to generate 4X sample in assay buffer, and 5 μl of 4X sample was added to cells and incubated at 37C or room temperature for the appropriate time. Vehicle concentration was 1%.
Microplates were read with a PerkinElmer instrument for chemiluminescent signal detection.

Each structure is given as a SMILES string.

T2 sequence (Q16602 23-461): as the sequence (Q16602 23-461) above
T2 sequence (O60895 43-175): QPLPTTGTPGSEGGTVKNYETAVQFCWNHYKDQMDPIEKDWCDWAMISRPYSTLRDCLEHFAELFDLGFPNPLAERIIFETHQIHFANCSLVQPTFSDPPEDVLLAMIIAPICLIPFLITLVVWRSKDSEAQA

As for `CC[C@H](C)[C@H](NC(=O)[C@H](CCC(N)=O)NC(=O)[C@H](Cc1c[nH]cn1)NC(=O)[C@H](C)NC(=O)[C@H](CC(C)C)NC(=O)[C@H](CCCCN)NC(=O)[C@H](CCC(N)=O)NC(=O)[C@@H](NC(=O)[C@@H](N)[C@@H](C)O)C(C)C)C(=O)N[C@@H](Cc1ccc(O)cc1)C(=O)N[C@@H](CCC(N)=O)C(=O)N[C@@H](Cc1ccccc1)C(=O)N[C@H](C(=O)N[C@@H](CC(=O)O)C(=O)N[C@@H](CCCCN)C(=O)N[C@@H](CC(=O)O)C(=O)N[C@@H](CCCCN)C(=O)N[C@@H](CC(=O)O)C(=O)N[C@@H](CC(N)=O)C(=O)N[C@H](C(=O)N[C@@H](C)C(=O)N1CCC[C@H]1C(=O)N[C@@H](CCCNC(=N)N)C(=O)N[C@@H](CO)C(=O)N[C@@H](CCCCN)C(=O)N[C@H](C(=O)N[C@@H](CO)C(=O)N1CCC[C@H]1C(=O)N[C@@H](CCC(N)=O)C(=O)NCC(=O)N[C@@H](Cc1ccc(O)cc1)C(N)=O)[C@@H](C)CC)C(C)C)[C@@H](C)O` [ADM22-52, reference compound], the IC50 (commonly the concentration at which inhibition is half-maximal) at CLR/RAMP1 [1] is 6600 nM; on CLR/RAMP2 [2], 256 nM. Moreover, the results for the Emax on CLR/RAMP1 [1] and at CLR/RAMP2 [2] were 57% and 105%, respectively.

As to `CCCCCCCCCCCCCCCC(=O)NCC(=O)N[C@H]1CSSC[C@@H](C(=O)N[C@H](C(=O)N[C@H](C(=O)N[C@@H](CCC(N)=O)C(=O)N[C@@H](CCCCN)C(=O)N[C@@H](CC(C)C)C(=O)N[C@@H](C)C(=O)N[C@@H](Cc2c[nH]cn2)C(=O)N[C@@H](CCC(N)=O)C(=O)N[C@H](C(=O)N[C@@H](Cc2ccc(O)cc2)C(=O)N[C@@H](CCC(N)=O)C(=O)N[C@@H](Cc2ccccc2)C(=O)N[C@H](C(=O)N[C@@H](CC(=O)O)C(=O)N[C@@H](CCCCN)C(=O)N[C@@H](CC(=O)O)C(=O)N[C@@H](CCCCN)C(=O)N[C@@H](CC(=O)O)C(=O)N[C@@H](CC(N)=O)C(=O)N[C@H](C(=O)N[C@@H](C)C(=O)N2CCC[C@H]2C(=O)N[C@@H](CCCNC(=N)N)C(=O)N[C@@H](CO)C(=O)N[C@@H](CCCCN)C(=O)N[C@H](C(=O)N[C@@H](CO)C(=O)N2CCC[C@H]2C(=O)N[C@@H](CCC(N)=O)C(=O)NCC(=O)N[C@@H](Cc2ccc(O)cc2)C(N)=O)[C@@H](C)CC)C(C)C)[C@@H](C)O)[C@@H](C)CC)C(C)C)[C@@H](C)O)NC(=O)[C@H]([C@@H](C)O)NC(=O)CNC(=O)[C@H](Cc2ccccc2)NC(=O)[C@H](CCCNC(=N)N)NC1=O` [Agonist 3], on CLR/RAMP2 [3], the “CLR/RAMP2 Max Activity % of control” value is 78 % of control.

As for `CCCCCCCCCCCCCCCC(=O)N[C@H](C(=O)N[C@H](C(=O)N[C@@H](CCC(N)=O)C(=O)N[C@@H](CCCCN)C(=O)N[C@@H](CC(C)C)C(=O)N[C@@H](C)C(=O)N[C@@H](Cc1c[nH]cn1)C(=O)N[C@@H](CCC(N)=O)C(=O)N[C@H](C(=O)N[C@@H](Cc1ccc(O)cc1)C(=O)N[C@@H](CCC(N)=O)C(=O)N[C@@H](Cc1ccccc1)C(=O)N[C@H](C(=O)N[C@@H](CC(=O)O)C(=O)N[C@@H](CCCCN)C(=O)N[C@@H](CC(=O)O)C(=O)N[C@@H](CCCCN)C(=O)N[C@@H](CC(=O)O)C(=O)N[C@@H](CC(N)=O)C(=O)N[C@@H](CO)C(=O)N[C@@H](C)C(=O)N1CCC[C@H]1C(=O)N[C@H](C(=O)N[C@@H](CC(=O)O)C(=O)N1CCC[C@H]1C(=O)N[C@@H](CO)C(=O)N[C@@H](CO)C(=O)N1CCC[C@H]1C(=O)N[C@@H](Cc1c[nH]cn1)C(=O)N[C@@H](CO)C(=O)N[C@@H](Cc1ccc(O)cc1)C(N)=O)C(C)C)[C@@H](C)O)[C@@H](C)CC)C(C)C)[C@@H](C)O` [Antagonist 1–1], on CLR/RAMP2 [2], the Emax stood at 100%.

As for `CC[C@H](C)[C@H](NC(=O)[C@H](CCC(N)=O)NC(=O)[C@H](Cc1c[nH]cn1)NC(=O)[C@H](C)NC(=O)[C@H](CC(C)C)NC(=O)[C@H](CCCCN)NC(=O)[C@H](CCC(N)=O)NC(=O)[C@@H](NC(=O)[C@@H](N)[C@@H](C)O)C(C)C)C(=O)N[C@@H](Cc1ccc(O)cc1)C(=O)N[C@@H](CCC(N)=O)C(=O)N[C@@H](Cc1ccccc1)C(=O)N[C@H](C(=O)N[C@@H](CC(=O)O)C(=O)N[C@@H](CCCCN)C(=O)N[C@@H](CC(=O)O)C(=O)N[C@@H](CCCCN)C(=O)N[C@@H](CC(=O)O)C(=O)N[C@@H](CC(N)=O)C(=O)N[C@@H](CO)C(=O)N[C@@H](C)C(=O)N1CCC[C@H]1C(=O)N[C@H](C(=O)N[C@@H](CC(=O)O)C(=O)N1CCC[C@H]1C(=O)N[C@@H](CO)C(=O)N[C@@H](CO)C(=O)N1CCC[C@H]1C(=O)N[C@@H](Cc1c[nH]cn1)C(=O)N[C@@H](CO)C(=O)N[C@@H](Cc1ccc(O)cc1)C(N)=O)C(C)C)[C@@H](C)O` [Antagonist 1–4], at CLR/RAMP1 [1], the midpoint of inhibition, the IC50, lay at 1120 nM and the Emax turned out to be 106%. Besides, on CLR/RAMP2 [2], the IC50 was determined as 289 nM and the Emax was 101%.

`CC[C@H](C)[C@H](NC(=O)[C@H](CCCCN)NC(=O)[C@H](CO)NC(=O)[C@H](CCCNC(=N)N)NC(=O)[C@@H]1CCCN1C(=O)[C@H](C)NC(=O)[C@@H](NC(=O)[C@H](CC(N)=O)NC(=O)[C@H](CC(=O)O)NC(=O)[C@H](CCCCN)NC(=O)[C@H](CC(=O)O)NC(=O)[C@H](CCCCN)NC(=O)[C@H](CC(=O)O)NC(=O)[C@@H](NC(=O)[C@H](Cc1ccccc1)NC(=O)[C@H](CCCNC(=N)N)NC(=O)[C@H](CO)NC(=O)[C@H](CC(C)C)NC(=O)[C@H](CC(C)C)NC(=O)CNC(=O)[C@H](C)NC(=O)[C@H](CC(C)C)NC(=O)[C@H](CCCNC(=N)N)NC(=O)[C@H](Cc1c[nH]cn1)NC(=O)[C@@H](NC(=O)[C@@H](N)C(C)C)[C@@H](C)O)[C@@H](C)O)C(C)C)C(=O)N[C@@H](CO)C(=O)N1CCC[C@H]1C(=O)N[C@@H](CCC(N)=O)C(=O)NCC(=O)N[C@@H](Cc1ccc(O)cc1)C(N)=O` [Antagonist 1–5]: at CLR/RAMP1 [1], the IC50 is 1880 nM and the Emax was found to be 99%. At CLR/RAMP2 [2], the IC50 worked out at 117 nM and the Emax was determined as 100%.

`CC[C@H](C)[C@H](NC(=O)[C@H](CCCCN)NC(=O)[C@H](CO)NC(=O)[C@H](CCCNC(=N)N)NC(=O)[C@@H]1CCCN1C(=O)[C@H](C)NC(=O)[C@@H](NC(=O)[C@H](CC(N)=O)NC(=O)[C@H](CC(=O)O)NC(=O)[C@H](CCCCN)NC(=O)[C@H](CC(=O)O)NC(=O)[C@@H]1CCCN1C(=O)CNC(=O)[C@H](CCSC)NC(=O)[C@H](CC(C)C)NC(=O)[C@H](CCC(N)=O)NC(=O)[C@H](Cc1c[nH]c2ccccc12)NC(=O)[C@H](CC(C)C)NC(=O)[C@H](CCCNC(=N)N)NC(=O)[C@H](Cc1c[nH]cn1)NC(=O)[C@H](C)NC(=O)[C@H](CC(C)C)NC(=O)[C@H](CCCCN)NC(=O)[C@H](CCC(N)=O)NC(=O)[C@@H](NC(=O)[C@@H](N)[C@@H](C)O)C(C)C)C(C)C)C(=O)N[C@@H](CO)C(=O)N1CCC[C@H]1C(=O)N[C@@H](CCC(N)=O)C(=O)NCC(=O)N[C@@H](Cc1ccc(O)cc1)C(N)=O` [Antagonist 1–6]: at CLR/RAMP1 [1], the IC50 was determined as 152 nM and the Emax turned out to be 101%. For the same compound, on CLR/RAMP2 [2], the IC50 came out at 7.3 nM and the Emax was 101%.

For the compound `NCCCC[C@H](NC(=O)[C@@H](Cc1cc(Br)c(O)c(Br)c1)NC(=O)N1CCC(N2Cc3ccccc3NC2=O)CC1)C(=O)N1CCN(c2ccncc2)CC1` [BIBN4096, reference compound], the Emax at CLR/RAMP2 [2] was 0%.

Consider `CSCC[C@H](NC(=O)CNC(=O)CNC(=O)[C@H](CO)NC(=O)[C@H](CCCNC(=N)N)NC(=O)[C@H](CO)NC(=O)[C@H](CC(C)C)NC(=O)[C@H](CC(C)C)NC(=O)CNC(=O)[C@H](C)NC(=O)[C@H](CC(C)C)NC(=O)[C@H](CCCNC(=N)N)NC(=O)[C@H](Cc1c[nH]cn1)NC(=O)[C@@H](NC(=O)[C@@H](NC(=O)[C@@H]1CSSC[C@H](NC(=O)[C@H](C)N)C(=O)N[C@@H](CC(N)=O)C(=O)N[C@@H]([C@@H](C)O)C(=O)N[C@@H](C)C(=O)N[C@@H]([C@@H](C)O)C(=O)N1)C(C)C)[C@@H](C)O)C(=O)N[C@H](C(=O)N[C@@H](CCCCN)C(=O)N[C@@H](CO)C(=O)N[C@@H](CC(N)=O)C(=O)N[C@@H](Cc1ccccc1)C(=O)N[C@H](C(=O)N1CCC[C@H]1C(=O)N[C@H](C(=O)N[C@@H](CC(N)=O)C(=O)N[C@H](C(=O)NCC(=O)N[C@@H](CO)C(=O)N[C@@H](CCCCN)C(=O)N[C@@H](C)C(=O)N[C@@H](Cc1ccccc1)C(N)=O)C(C)C)[C@@H](C)O)C(C)C)C(C)C` [CGRP, calcitonin gene-related peptide], for which the “CLR/RAMP1 Max Activity % of control” value on CLR/RAMP1 [4] is on record as 103 % of control.
